Experimental findings from PubChem BioAssay AID220 (DTP/NCI, 2004) are described below.

The structures appear in SMILES notation. Several values for one entry are separate records, joined by “and”; a condition that tells them apart may be missing. Equal values may be shown once. Records with an inconclusive call do not appear.

This assay deals with CD8F1 mice, subcutaneous mammary adenocarcinoma, T/C%. The assay can be described thus: NCI In Vivo Anticancer Drug Screen. Data for tumor model Mammary Adenocarcinoma CD8F1 (subcutaneous) in CD8F1. The settings on record: higher = larger tumour. The essentials: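 Ratio of treated to vehicle-control outcome, based on either survival or tumor size, in mice bearing transplantable tumors given the test compound.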

[1] abbreviates: endpoint: median tumor weight change, dose: 62.5 mg/kg/injection, schedule: Q01DX001 (ip), vehicle: saline with Tween-80.
Setting [2] is: endpoint: median tumor weight change, dose: 125.0 mg/kg/injection, schedule: Q01DX001 (ip), vehicle: saline.
[3] abbreviates: endpoint: median tumor weight change, dose: 125.0 mg/kg/injection, schedule: Q01DX001 (ip), vehicle: saline with Tween-80.
The mark [4] stands for this setting: endpoint: median tumor weight change, dose: 250.0 mg/kg/injection, schedule: Q01DX001 (ip), vehicle: saline with Tween-80.
[5] abbreviates: endpoint: median tumor weight change, dose: 500.0 mg/kg/injection, schedule: Q01DX001 (ip), vehicle: saline with Tween-80.
Where [6] appears, read: endpoint: median tumor weight change, dose: 1000.0 mg/kg/injection, schedule: Q01DX001 (ip), vehicle: saline with Tween-80.

Consider `CC1(C)N=C(N)N=C(N)N1c1ccc(CCCCc2ccc(S(=O)(=O)F)cc2Cl)c(Cl)c1`, for which the T/C is 95 % of control (endpoint: median tumor weight (est.), dose: 12.5 mg/kg/injection, schedule: Q07DX005 (ip), vehicle: other); 42 % of control (endpoint: median tumor weight (est.), dose: 12.5 mg/kg/injection, schedule: Q07DX005 (ip), vehicle: saline); 114 % of control (endpoint: median tumor weight (est.), dose: 12.5 mg/kg/injection, schedule: Q07DX005 (ip), vehicle: suspension in saline); 60 % of control (endpoint: median tumor weight (est.), dose: 25.0 mg/kg/injection, schedule: Q07DX005 (ip), vehicle: saline); 105 % of control (endpoint: median tumor weight (est.), dose: 25.0 mg/kg/injection, schedule: Q07DX005 (ip), vehicle: suspension in saline); 39 % of control (endpoint: median tumor weight (est.), dose: 50.0 mg/kg/injection, schedule: Q07DX005 (ip), vehicle: saline). Also, the T/C by setting is: (endpoint: median tumor weight (est.), dose: 50.0 mg/kg/injection, schedule: Q07DX005 (ip), vehicle: suspension in saline) 46 % of control; (endpoint: median tumor weight (est.), dose: 100.0 mg/kg/injection, schedule: Q07DX005 (ip), vehicle: saline) 20 % of control; (endpoint: median tumor weight (est.), dose: 100.0 mg/kg/injection, schedule: Q07DX005 (ip), vehicle: suspension in saline) 26 % of control; (endpoint: median tumor weight (est.), dose: 200.0 mg/kg/injection, schedule: Q07DX005 (ip), vehicle: saline) 5 % of control; (endpoint: median tumor weight (est.), dose: 200.0 mg/kg/injection, schedule: Q07DX005 (ip), vehicle: suspension in saline) 2 % of control; (endpoint: median tumor weight change, dose: 90.0 mg/kg/injection, schedule: Q01DX001 (ip), vehicle: saline with Tween-80) 50 % of control. Further, the T/C (endpoint: median tumor weight change, dose: 100.0 mg/kg/injection, schedule: Q01DX001 (ip), vehicle: saline with Tween-80) is 53 % of control; the T/C (endpoint: median tumor weight change, dose: 112.5 mg/kg/injection, schedule: Q01DX001 (ip), vehicle: saline with Tween-80) is 84 % of control; the T/C (endpoint: median tumor weight change, dose: 133.0 mg/kg/injection, schedule: Q01DX001 (ip), vehicle: saline with Tween-80) was 64 % of control; the T/C (endpoint: median tumor weight change, dose: 200.0 mg/kg/injection, schedule: Q01DX001 (ip), vehicle: saline with Tween-80) is 12 % of control and 25 % of control; the T/C (endpoint: median tumor weight change, dose: 225.0 mg/kg/injection, schedule: Q01DX001 (ip), vehicle: saline with Tween-80) is 49 % of control; the T/C (endpoint: median tumor weight change, dose: 300.0 mg/kg/injection, schedule: Q01DX001 (ip), vehicle: saline with Tween-80) was 27 % of control. The T/C (endpoint: median tumor weight change, dose: 450.0 mg/kg/injection, schedule: Q01DX001 (ip), vehicle: saline with Tween-80) was 12 % of control.
Turning to `CCOC1=Cc2c(oc3c(C(C)(C)C)cc(OCC)cc23)OC(C(C)(C)C)=C1`, the T/C is, setting by setting: (endpoint: median tumor weight change, dose: 15.6 mg/kg/injection, schedule: Q01DX001 (ip), vehicle: saline with Tween-80) 114 % of control; (endpoint: median tumor weight change, dose: 15.62 mg/kg/injection, schedule: Q01DX001 (ip), vehicle: saline with Tween-80) 98 % of control; under setting [1], 85 % of control and 106 % of control.
For the molecule `O=C1N[C@@H]2C(=C[C@H](O)[C@@H](O)[C@H]2O)c2cc3c(c(O)c21)OCO3`, the T/C was 75 % of control (endpoint: median tumor weight change, dose: 3.12 mg/kg/injection, schedule: Q01DX001 (ip), vehicle: saline with Tween-80); 90 % of control (endpoint: median tumor weight change, dose: 6.25 mg/kg/injection, schedule: Q01DX001 (ip), vehicle: saline with Tween-80); 60 % of control (endpoint: median tumor weight change, dose: 12.5 mg/kg/injection, schedule: Q01DX001 (ip), vehicle: saline with Tween-80).
As for `NNC(=O)c1ccncc1`, the T/C runs as follows: (endpoint: median tumor weight change, dose: 62.0 mg/kg/injection, schedule: Q01DX001 (ip), vehicle: saline) 78 % of control; under setting [2], 70 % of control.
Take `Nc1nc(-c2ccccc2)c(Br)c(=O)[nH]1`: the T/C is 115 % of control under setting [3], 96 % of control under setting [4], 93 % of control under setting [5] and 98 % of control under setting [6].
`CN=S(=O)(OCCCCCOS(=O)(=NC)c1ccccc1)c1ccccc1` (stereo not drawn): the T/C is, setting by setting: (endpoint: median tumor weight change, dose: 62.0 mg/kg/injection, schedule: Q01DX001 (ip), vehicle: saline with Tween-80) 121 % of control; under setting [1], 59 % of control; under setting [4], 63 % of control and 83 % of control; under setting [5], 20 % of control.
Take `CC(=O)[C@H]1CC[C@H]2[C@@H]3C[C@H](C)C4=CC(=O)CC[C@]4(C)[C@H]3C(=O)C[C@]12C`: the T/C is 67 % of control (endpoint: mean tumor weight (est.), dose: 200.0 mg/kg/injection, schedule: Q07DX003 (ip), vehicle: saline); 61 % of control (endpoint: mean tumor weight (est.), dose: 400.0 mg/kg/injection, schedule: Q07DX003 (ip), vehicle: saline); 86 % of control (endpoint: mean tumor weight (est.), dose: 800.0 mg/kg/injection, schedule: Q07DX003 (ip), vehicle: saline); 107 % of control (endpoint: mean tumor weight, dose: 200.0 mg/kg/injection, schedule: Q07DX005 (ip), vehicle: saline); 63 % of control (endpoint: mean tumor weight, dose: 200.0 mg/kg/injection, schedule: Q07DX006 (ip), vehicle: saline); 90 % of control (endpoint: mean tumor weight, dose: 200.0 mg/kg/injection, schedule: Q07DX007 (ip), vehicle: saline). In addition, the T/C was 54 % of control (endpoint: mean tumor weight, dose: 400.0 mg/kg/injection, schedule: Q07DX005 (ip), vehicle: saline); 39 % of control (endpoint: mean tumor weight, dose: 400.0 mg/kg/injection, schedule: Q07DX006 (ip), vehicle: saline); 25 % of control (endpoint: mean tumor weight, dose: 400.0 mg/kg/injection, schedule: Q07DX007 (ip), vehicle: saline); 36 % of control (endpoint: mean tumor weight, dose: 800.0 mg/kg/injection, schedule: Q07DX005 (ip), vehicle: saline); 49 % of control (endpoint: mean tumor weight, dose: 800.0 mg/kg/injection, schedule: Q07DX007 (ip), vehicle: saline).
For `COc1cc([C@@H]2c3cc4c(c(O)c3C[C@H]3COC(=O)[C@@H]32)OCO4)cc(OC)c1O`, the T/C reads like this: (endpoint: median tumor weight (est.), dose: 0.5 mg/kg/injection, schedule: Q07DX005 (ip), vehicle: saline) 275 % of control; (endpoint: median tumor weight (est.), dose: 1.0 mg/kg/injection, schedule: Q07DX005 (ip), vehicle: saline) 85 % of control; (endpoint: median tumor weight (est.), dose: 2.0 mg/kg/injection, schedule: Q07DX005 (ip), vehicle: saline) 56 % of control; (endpoint: median tumor weight (est.), dose: 4.0 mg/kg/injection, schedule: Q07DX005 (ip), vehicle: saline) 26 % of control; (endpoint: median tumor weight (est.), dose: 8.0 mg/kg/injection, schedule: Q07DX005 (ip), vehicle: saline) 27 % of control.
On to `Cc1ccc(NC(=O)Oc2ccc(Br)cc2Br)c([N+](=O)[O-])c1`, for which the T/C is 121 % of control (endpoint: median tumor weight (est.), dose: 12.5 mg/kg/injection, schedule: Q07DX005 (ip), vehicle: saline with Tween-80); 93 % of control (endpoint: median tumor weight (est.), dose: 25.0 mg/kg/injection, schedule: Q07DX005 (ip), vehicle: saline with Tween-80); 115 % of control (endpoint: median tumor weight (est.), dose: 50.0 mg/kg/injection, schedule: Q07DX005 (ip), vehicle: saline with Tween-80); 77 % of control (endpoint: median tumor weight (est.), dose: 100.0 mg/kg/injection, schedule: Q07DX005 (ip), vehicle: saline with Tween-80); 124 % of control (endpoint: median tumor weight (est.), dose: 200.0 mg/kg/injection, schedule: Q07DX005 (ip), vehicle: saline with Tween-80); 98 % of control (endpoint: median tumor weight (est.), dose: 400.0 mg/kg/injection, schedule: Q07DX005 (ip), vehicle: saline with Tween-80). For the same molecule, the T/C reads like this: under setting [4], 52 % of control; under setting [5], 88 % of control; under setting [6], 50 % of control; (endpoint: median tumor weight change, dose: 1800.0 mg/kg/injection, schedule: Q01DX001 (ip), vehicle: saline with Tween-80) 74 % of control; (endpoint: median tumor weight change, dose: 2000.0 mg/kg/injection, schedule: Q01DX001 (ip), vehicle: saline with Tween-80) 59 % of control; (endpoint: median tumor weight change, dose: 3600.0 mg/kg/injection, schedule: Q01DX001 (ip), vehicle: saline with Tween-80) 44 % of control.
In the case of `CC1=CC(=NN=c2cc(C)n([O-])c(C)c2)C=C(C)[N+]1=O`, the T/C by setting is: (endpoint: median tumor weight change, dose: 100.0 mg/kg/injection, schedule: Q01DX001 (ip), vehicle: suspension in saline) 76 % of control; under setting [3], 118 % of control; under setting [2], 55 % of control; (endpoint: median tumor weight change, dose: 200.0 mg/kg/injection, schedule: Q01DX001 (ip), vehicle: suspension in saline) 85 % of control; (endpoint: median tumor weight change, dose: 250.0 mg/kg/injection, schedule: Q01DX001 (ip), vehicle: saline) 117 % of control; (endpoint: median tumor weight change, dose: 400.0 mg/kg/injection, schedule: Q01DX001 (ip), vehicle: suspension in saline) 80 % of control. For the same molecule, the T/C under setting [5] was 94 % of control; the T/C (endpoint: median tumor weight change, dose: 500.0 mg/kg/injection, schedule: Q01DX001 (ip), vehicle: saline) is 100 % of control; the T/C (endpoint: median tumor weight change, dose: 800.0 mg/kg/injection, schedule: Q01DX001 (ip), vehicle: suspension in saline) was 40 % of control; the T/C (endpoint: median tumor weight change, dose: 1000.0 mg/kg/injection, schedule: Q01DX001 (ip), vehicle: saline) is 17 % of control.
